Two molecules from patent US20240390352A1, “PHARMACEUTICAL COMPOSITION FOR PREVENTING OR TREATING CANCER COMPRISING CARNITINE ACYLCARNITINE CARRIER INHIBITOR AND ANTITUMOR AGENT” (NEW CANCER CURE - BIO CO.,LTD., priority 2021, published 2024) can be followed below.

Entries after “also recorded” stand apart in the source; their conditions may differ.

Common to all, as to type: cell-based
For experiment [1], the system named is leukemia cells, SR cells and K562 cells. The experiment in a line: Synergistic effect of omeprazole and anticancer drug, leukemia cells. Particulars: anticancer drug combined with omeprazole (KN510) versus each treatment alone.
Experiment [2] has as its system prostate cancer cells, PC-3 cells and DU-145 cells. The experiment in a line: Synergistic effect of omeprazole and anticancer drug, prostate cancer cells. Particulars: anticancer drug combined with omeprazole (KN510) versus each treatment alone.
The test system of another experiment is A549 cells. Briefly: SRB assay cancer cell growth rate, A549. The following applies: relative to control (100%), 48 hours, KN510 200 μM, irinotecan 2.5 μM, 5-FU 5 μM, gemcitabine 2.5 μM, paclitaxel 10 nM, cisplatin 1 μM, alone or KN510 + anticancer drug.
A further experiment deals with CAKI-1 cells. The experiment in a line: SRB assay cancer cell growth rate, CAKI-1. The following applies: relative to control (100%), 48 hours, KN510 200 μM, irinotecan 2.5 μM, 5-FU 5 μM, gemcitabine 2.5 μM, paclitaxel 10 nM, cisplatin 1 μM, alone or KN510 + anticancer drug. (In general: In SRB staining, fixed cells bind dye roughly in proportion to their protein.)
The subject of experiment [3] is MKN-28 cells and AGS cells, stomach cancer cells. Briefly: Synergistic effect of omeprazole and anticancer drug, stomach cancer cells. Particulars: anticancer drug combined with omeprazole (KN510) versus each treatment alone.
Experiment [4] relates to pancreatic ductal adenocarcinoma (PDAC) cell lines, MIA PaCa-2 cells and PANC-1 cells. The experiment in a line: Synergistic effect of omeprazole and anticancer drug, pancreatic cancer cell lines. The following applies: anticancer drug combined with omeprazole (KN510) versus each treatment alone.
Experiment [5] has as its system ovarian cancer cells, OVCAR-8 cells and SK-OV-3 cells. The experiment in a line: Synergistic effect of omeprazole and anticancer drug, ovarian cancer cells. Particulars: anticancer drug combined with omeprazole (KN510) versus each treatment alone.
For the next experiment, the system named is UACC62 cells. Briefly: SRB assay cancer cell growth rate, UACC62. Particulars: relative to control (100%), 48 hours, KN510 200 μM, irinotecan 2.5 μM, 5-FU 5 μM, gemcitabine 2.5 μM, paclitaxel 10 nM, cisplatin 1 μM, alone or KN510 + anticancer drug.
Another experiment relates to UACC257 cells. Briefly: SRB assay cancer cell growth rate, UACC257. Particulars: relative to control (100%), 48 hours, KN510 200 μM, irinotecan 2.5 μM, 5-FU 5 μM, gemcitabine 2.5 μM, paclitaxel 10 nM, cisplatin 1 μM, alone or KN510 + anticancer drug.
Experiment [6] deals with glioblastoma (GBM) cell lines, U-87 MG cells and T87G cells. The experiment in a line: Synergistic effect of omeprazole and anticancer drug, glioblastoma cell lines. The following applies: anticancer drug combined with omeprazole (KN510) versus each treatment alone.
For experiment [7], the system named is renal cell carcinoma cell lines CAKI-1 and ACHN cells. Briefly: Synergistic effect of omeprazole and anticancer drug, renal cancer cell lines. Particulars: anticancer drug combined with omeprazole (KN510) versus each treatment alone.
For experiment [8], the system named is colon cancer cell lines HCT-116 cells and COLO-205 cells. The experiment in a line: Synergistic effect of omeprazole and anticancer drug, colon cancer cell lines. The following applies: anticancer drug combined with omeprazole (KN510) versus each treatment alone.
The next experiment deals with K562 cells. Briefly: SRB assay cancer cell growth rate, K562. The following applies: relative to control (100%), 48 hours, KN510 200 μM, irinotecan 2.5 μM, 5-FU 5 μM, gemcitabine 2.5 μM, paclitaxel 10 nM, cisplatin 1 μM, alone or KN510 + anticancer drug.
Experiment [9] has as its system liver cancer cell lines SK-HEP-1 cells and Huh-7 cells. Briefly: Synergistic effect of omeprazole and anticancer drug, liver cancer cell lines. Particulars: anticancer drug combined with omeprazole (KN510) versus each treatment alone.
Another experiment has as its system HCT-116 cells. The experiment in a line: SRB assay cancer cell growth rate, HCT-116. Particulars: relative to control (100%), 48 hours, KN510 200 μM, irinotecan 2.5 μM, 5-FU 5 μM, gemcitabine 2.5 μM, paclitaxel 10 nM, cisplatin 1 μM, alone or KN510 + anticancer drug.
The next experiment relates to OVCAR-8 cells. The experiment in a line: SRB assay cancer cell growth rate, OVCAR-8. Particulars: relative to control (100%), 48 hours, KN510 200 μM, irinotecan 2.5 μM, 5-FU 5 μM, gemcitabine 2.5 μM, paclitaxel 10 nM, cisplatin 1 μM, alone or KN510 + anticancer drug.
The subject of experiment [10] is A549 and H23 lung cancer cells. The experiment in a line: Synergistic effect of omeprazole and anticancer drug, lung cancer cells. Particulars: anticancer drug combined with omeprazole (KN510) versus each treatment alone.
A further experiment has as its system ACHN cells. Briefly: SRB assay cancer cell growth rate, ACHN. Particulars: relative to control (100%), 48 hours, KN510 200 μM, irinotecan 2.5 μM, 5-FU 5 μM, gemcitabine 2.5 μM, paclitaxel 10 nM, cisplatin 1 μM, alone or KN510 + anticancer drug.
Another experiment relates to PC-3 cells. Briefly: SRB assay cancer cell growth rate, PC-3. Particulars: relative to control (100%), 48 hours, KN510 200 μM, irinotecan 2.5 μM, 5-FU 5 μM, gemcitabine 2.5 μM, paclitaxel 10 nM, cisplatin 1 μM, alone or KN510 + anticancer drug.
In experiment [11] the test system is melanoma cell lines UACC62 cells and UACC257 cells. Briefly: Synergistic effect of omeprazole and anticancer drug, melanoma cell lines. Particulars: anticancer drug combined with omeprazole (KN510) versus each treatment alone.
Experiment [12] deals with breast cancer cells, MDA-MB-231 cells and MCF-7 cells. The experiment in a line: Synergistic effect of omeprazole and anticancer drug, breast cancer cells. Particulars: anticancer drug combined with omeprazole (KN510) versus each treatment alone.
For the next experiment, the system named is SR cells. Briefly: SRB assay cancer cell growth rate, SR. The following applies: relative to control (100%), 48 hours, KN510 200 μM, irinotecan 2.5 μM, 5-FU 5 μM, gemcitabine 2.5 μM, paclitaxel 10 nM, cisplatin 1 μM, alone or KN510 + anticancer drug.

As for `O=c1[nH]cc(F)c(=O)[nH]1` [5-FU, fluorouracil], in experiment [1], the “synergistic effect of omeprazole and an anticancer drug in combination, leukemia” value is “significantly inhibited; also recorded: Positive effect”. Moreover, the “synergistic effect of omeprazole and an anticancer drug in combination, prostate cancer” value in [2] is “Negative effect”. In the experiment with A549 cells, the “A549 growth rate average (%)” value is 27.36%. For the same molecule, the “CAKI-1 growth rate average (%)” value in the experiment on CAKI-1 cells was found to be 47.91%. Further, the “synergistic effect of omeprazole and an anticancer drug in combination, stomach cancer” value in experiment [3] was “Negative effect”. Further, the “synergistic effect of omeprazole and an anticancer drug in combination, pancreatic cancer (PDAC)” value in experiment [4] is on record as “Negative effect”. The “synergistic effect of omeprazole and an anticancer drug in combination, ovarian cancer” value in experiment [5] is “Negative effect”. Besides, in the experiment on UACC62 cells, the “UACC62 growth rate average (%)” value is 52.14%. Besides, the “UACC257 growth rate average (%)” value in the experiment with UACC257 cells was found to be 62.17%. Also, the “synergistic effect of omeprazole and an anticancer drug in combination, glioblastoma (GBM)” value in experiment [6] was “Negative effect”. Moreover, the “synergistic effect of omeprazole and an anticancer drug in combination, renal cell carcinoma” value in [7] is reported as “significantly inhibited; also recorded: Positive effect”. Moreover, the “synergistic effect of omeprazole and an anticancer drug in combination, colon cancer” value in experiment [8] is “significantly inhibited; also recorded: Positive effect”. Also, the “K562 growth rate average (%)” value in the experiment on K562 cells is on record as 99.83%. The “synergistic effect of omeprazole and an anticancer drug in combination, liver cancer” value in [9] was “significantly inhibited; also recorded: Positive effect”. The “HCT-116 growth rate average (%)” value in the experiment with HCT-116 cells was determined as 41.59%. Moreover, the “OVCAR-8 growth rate average (%)” value with OVCAR-8 cells stood at 27.12%. Besides, the “synergistic effect of omeprazole and an anticancer drug in combination, lung cancer” value in experiment [10] is “significantly inhibited; also recorded: Positive effect”. Further, in the experiment on ACHN cells, the “ACHN growth rate average (%)” value is given as 48.97%. For the same molecule, the “PC-3 growth rate average (%)” value with PC-3 cells was determined as 55.19%. Besides, the “synergistic effect of omeprazole and an anticancer drug in combination, melanoma” value in experiment [11] was “significantly inhibited; also recorded: Positive effect”. For the same molecule, the “synergistic effect of omeprazole and an anticancer drug in combination, breast cancer” value in experiment [12] is listed as “Negative effect”. Also, the “SR growth rate average (%)” value with SR cells amounted to 96.15%.

On to `N.N.[Cl][Pt][Cl]` [Cisplatin], for which the results for the “synergistic effect of omeprazole and an anticancer drug in combination, leukemia” value in experiment [1] and in [1] (listed as cisplatin) were “Positive effect” and “significantly inhibited”, respectively. Besides, the “synergistic effect of omeprazole and an anticancer drug in combination, prostate cancer” value in [2] was “Negative effect”. Further, the “A549 growth rate average (%)” value in the experiment with A549 cells is listed as 99.46%. The “CAKI-1 growth rate average (%)” value with CAKI-1 cells was determined as 88.17%. The “synergistic effect of omeprazole and an anticancer drug in combination, stomach cancer” value in experiment [3] is given as “Negative effect”. Moreover, the “synergistic effect of omeprazole and an anticancer drug in combination, pancreatic cancer (PDAC)” value in experiment [4] was “Negative effect”. Besides, the “synergistic effect of omeprazole and an anticancer drug in combination, ovarian cancer” value in experiment [5] was “Positive effect”; in experiment [5] (listed as cisplatin), “significantly inhibited”. Besides, in the experiment with UACC62 cells, the “UACC62 growth rate average (%)” value amounted to 62.76%. For the same molecule, the “UACC257 growth rate average (%)” value with UACC257 cells is given as 76.16%. Moreover, in [6], the “synergistic effect of omeprazole and an anticancer drug in combination, glioblastoma (GBM)” value is recorded as “Negative effect”. Moreover, in experiment [7], the “synergistic effect of omeprazole and an anticancer drug in combination, renal cell carcinoma” value is on record as “Negative effect”. The “synergistic effect of omeprazole and an anticancer drug in combination, colon cancer” value in experiment [8] is “Negative effect”. Further, the “K562 growth rate average (%)” value in the experiment with K562 cells came to 102.62%. In experiment [9], the “synergistic effect of omeprazole and an anticancer drug in combination, liver cancer” value is “Negative effect”. Besides, in the experiment with HCT-116 cells, the “HCT-116 growth rate average (%)” value is 100.00%. For the same molecule, in the experiment on OVCAR-8 cells, the “OVCAR-8 growth rate average (%)” value was 51.47%. In [10], the “synergistic effect of omeprazole and an anticancer drug in combination, lung cancer” value is reported as “Negative effect”. For the same molecule, the “ACHN growth rate average (%)” value with ACHN cells was found to be 78.57%. The “PC-3 growth rate average (%)” value with PC-3 cells stood at 82.60%. Also, the “synergistic effect of omeprazole and an anticancer drug in combination, melanoma” value in experiment [11] is on record as “Negative effect”. The “synergistic effect of omeprazole and an anticancer drug in combination, breast cancer” value in [12] was “Negative effect”. Also, in the experiment on SR cells, the “SR growth rate average (%)” value was found to be 93.52%.
